Assay results as given in patent US9115145B2, “Tocotrienol derivatives and associated methods” (FIRST TECH INTERNATIONAL LIMITED, priority 2011, dated 2015).
Where two headings read alike, the source gives them in different places.

Columns and labels:
[1] = tested on: +SA mammary epithelial cells; experiment: MTT assay of +SA cells (antiproliferative activity); format: cell-based, mouse; conditions: for IC50: Mus musculus, +SA cell, 24 hours treatment, read-out: IC50 antiproliferative activity against +SA mammary epithelial cells; for antiproliferative activity against +SA mammary tumor cells (in words): described from FIG. 32 / text
Procedure: The antiproliferative activities of Compounds 3-44 against the highly metastatic malignant +SA mammary epithelial cells were evaluated by MTT assay. Materials for the assay were purchased from Sigma Chemical Company (St. Louis, Mo.) unless otherwise stated. The highly malignant +SA mouse mammary epithelial cell line was serially passaged at subconfluent cell density. The +SA mammary tumor cell line was derived from an adenocarcinoma that developed spontaneously in a BALB/c female mouse. +SA cells were maintained in serum-free defined medium consisting of Dulbecco's modified Eagle's medium (DMEM)/F12 containing 5 mg/mL bovine serum albumin (BSA), 10 […], 100 U/mL soybean trypsin inhibitor, 100 U/mL penicillin G, 0.1 mg/mL streptomycin, […], and 10 ng/mL epidermal growth factor. For subculturing, cells were rinsed twice with sterile Ca2+ and Mg2+-free phosphate buffered saline (PBS) and incubated in 0.05% trypsin containing 0.025% EDTA in PBS for 5 min at 37° C. The released cells were centrifuged, resuspended in fresh media and counted using hemocytometer. A stock solution of the compounds was prepared in DMSO. Once dissolved, this solution was added to a small volume of sterile 10% BSA in water and incubated overnight at 37° C. This solution conjugated to BSA was used to prepare various concentrations (0-40 μM) of tocotrienol analogs. DMSO was added to all treatment media such that the final DMSO concentration was the same in all treatment groups within a given experiment and was always less than 0.1%. For cytotoxic studies, cells were seeded at a density of 5×10^4 cells/well (+SA cells) or 1×10^5 cells/well (CL-S1 cells) (6 wells/group) in 24-well culture plates and allowed to grow in their respective control media. After 3 days incubation period (approximately 70% confluency), cells were divided equally into various treatment groups and exposed to their respective treatments for a 24 hours incubation period. Following the 24 hours treatment period, cell viability was measured using the MTT assay.
+SA Mammary epithelial cell viable number was determined by a 3-(4,5-dimethylthiazol-2yl)-2,5-diphenyl tetrazolium bromide (MTT) colorimetric assay. On the assay day, treatment medium was replaced with fresh control medium containing 0.42 mg/mL MTT, and the cells in 24-well plates were incubated at 37° C. for 4 hours. Afterward, the medium was removed, and the MTT crystals were dissolved in isopropyl alcohol (1 mL/well). The optical density of each sample was read at 570 nm on a microplate reader (SpectraCount, Packard BioScience Company), against a blank prepared from cell-free cultures. The number of cells/well was calculated against a standard curve prepared by plating various concentrations of cells, as determined by hemocytometer, at the start of each experiment.
Differences among the various treatment groups in +SA cell cytotoxic studies were determined by analysis of variance (ANOVA) followed by Dunnett's t-test. The difference of P<0.05 was considered to be statistically significant as compared with vehicle-treated controls unless separately described. Linear regression analysis of treatment effects on viable cell number in growth and cytotoxicity studies was used to determine the 50% growth inhibition concentration (IC50) for individual treatments.

[2] = tested on: MCF7 human breast cancer cell line; experiment: MTT assay of MCF7 cells; format: cell-based; conditions: Homo sapiens, media containing 1% fetal bovine serum
Procedure: (§1) MDA-MB-231 and MCF7 cells were plated at a density of 8×10^3 cells/well and 10^4 cells/well in 96-well culture plates, respectively. The compounds were fed in serum free media containing 5% and 1% fetal bovine serum for MDA-MB-231 and MCF7 cells, respectively.

[3] = tested on: MDA-MB-231 human breast cancer cell line; experiment: MTT assay of MDA-MB-231 cells; format: cell-based; conditions: Homo sapiens, media containing 5% fetal bovine serum
Procedure: as §1

[4] = tested on: MDA-MB-231 human breast cancer cells; experiment: Wound-healing assay (cell migration); format: cell-based; conditions: Homo sapiens; for inhibition at 5 µM: MDA-MB-231, 24 h, wound-healing assay; for IC50: MDA-MB-231, wound-healing assay, dose response, read-out: IC50 antimigratory activity
Procedure: The highly metastatic human breast cancer MDA-MB-231 cells were cultured in RPMI 1640 medium containing 10 mM HEPES, 4 mM L-glutamine, 10% fetal bovine serum, penicillin (100 IU/mL), and streptomycin (50 μg/mL), and grown in a 5% CO2 atmosphere at 37° C. Cells were plated onto sterile 24-well and allowed to recover for a confluent cell monolayer formed in each well (>95% confluence). Wounds were then inflicted to each cell monolayer using a sterile 200 μL pipette tip. Media were removed, cells monolayers were washed twice with PBS, and then fresh media containing test compounds were added to each well. Test compounds were prepared in DMSO at 5 μM concentration and added to the plates, each in triplicate using DMSO as negative control. The incubation was carried out for 24 h under serum-starved conditions, after which media was removed and cells were fixed and stained using a staining composition sold under the trade name Diff Quick (Dade Behring Diagnostics, Aguada, Puerto Rico). The stain comprised a fixative reagent containing 1.8 mg/L triarylmethane dye in methyl alcohol; a first solution of 1 g/L xanthene dye, buffer, and sodium azide (0.01%) as preservative; and a second solution of 1.25 g/L Thiazine dye mixture (0.625 g/L azure A and 0.625 g/L methylene blue) and buffer. The number of cells migrated on the scratched wound were counted under the microscope in three or more randomly selected fields (magnification: 400×). Final results are expressed as mean±SEM per 400× field. The wound-healing assay is a simple method for the study of directional cell migration in vitro.
Compounds were tested for their ability to inhibit the migration of the highly metastatic MDA-MB-231 human breast cancer cells in the wound-healing assay using the procedure described above. Compounds 6, 10, 12, 13, 24, 26, 27, and 29 inhibited the migration of more than 50% of the human breast cancer cells MDA-MB-231 in the wound healing assay at 5 μM dose. […] The antimigratory activity of tocotrienols may be enhanced by a terminal aromatic functionality. The presence of electron withdrawing group, such as nitro in Compound 29, may eliminate the antiproliferative activity yet retain the antimigratory activity of the compound. While the electron donating groups, such as OH and OMe found in Compounds 23 and 26, respectively, retained both antiproliferative and antimigratory activities.
Utilizing similar procedures follow-up testing was conducted on a variety of compounds using a range of compound concentrations. The results of follow-up antimigratory testing are shown in FIG. 35B and Table III below with IC50 values calculated using statistical software.

[5] = tested on: MCF 10A non-tumorigenic mammary epithelial cells; experiment: MTT assay of MCF10A cells; format: cell-based, human; conditions: for IC50: Homo sapiens; for Selectivity index: IC50 for MCF 10A divided by IC50 for +SA cell line
Procedure: MCF 10A (ATCC cat # CRL-10317) normal human non-tumorigenic mammary epithelial cells were maintained in serum-free defined medium consisting of Dulbecco's modified Eagle's medium (DMEM)/F12 containing 5% horse serum, 1% penicillin/streptomycin, 0.5 μg/mL hydrocortisone, 100 ng/mL cholera toxin, 10 μg/mL insulin, and 20 ng/mL epidermal growth factor (rhEGF). For subculturing, cells were rinsed twice with sterile Ca2+ and Mg2+-free phosphate buffered saline (PBS) and incubated in 0.25% trypsin containing 0.025% EDTA in PBS for 5 min at 37° C. The released cells were centrifuged, re-suspended in fresh media and counted using a hemocytometer. For testing, MCF 10A cells were plated at a density of 10×10^4 cells/well. A stock solution of the compounds was prepared in DMSO. DMSO was added to all treatment media such that the final DMSO concentration was the same in all treatment groups within a given experiment and was always less than 0.1%. The compounds were fed in serum free media. MCF10A mammary epithelial cell's viable number was determined by MTT colorimetric assay. […] IC50 values were calculated by non-linear regression using statistical software. The selectivity index indicated in the table represents the IC50 value for the MCF 10A cell line divided by the IC50 value for the +SA cell line.

[6] = tested on: 60 human tumor cell lines; experiment: NCI in vitro screening against 60 human cell lines, single concentration; format: cell-based; conditions: 10 μM dose; negative values indicate cytotoxicity
Procedure: Compounds selected from Compounds 3-44 were provided to the National Cancer Institute for in vitro screening against 60-human cell lines for their ability to inhibit the growth of tumor cells in a full panel representing nine different organs (blood, lung, colon, CNS, skin, ovary, kidney, prostate, and breast). The compounds were tested at a single concentration of 10 μM, and the percentages of growth inhibitions over the sixty tested cell lines were determined. Compounds showing the highest activity were chosen for secondary assays using five different compound concentrations.
The human tumor cell lines of the cancer screening panel were grown in RPMI 1640 medium containing 5% fetal bovine serum and 2 mM L-glutamine. For a typical screening experiment, cells are inoculated into 96 well microtiter plates in 100 μL at plating densities ranging from 5000 to 40,000 cells/well depending on the doubling time of individual cell lines. After cell inoculation, the microtiter plates are incubated at 37° C., 5% CO2, 95% air and 100% relative humidity for 24 hours prior to addition of experimental drugs. After 24 hours, two plates of each cell line are fixed in situ with Trichloroacetic acid (“TCA”), to represent a measurement of the cell population for each cell line at the time of drug addition. Experimental drugs are solubilized in dimethyl sulfoxide at 400-fold the desired final maximum test concentration and stored frozen prior to use. At the time of drug addition, an aliquot of frozen concentrate is thawed and diluted to twice the desired final maximum test concentration with complete medium containing 50 ng/mL gentamicin. An aliquot of 100 μL of this drug dilution is added to the appropriate microtiter wells already containing 100 μL of medium, resulting in the required final drug concentrations. Following drug addition, the plates are incubated for an additional 48 h at 37° C., 5% CO2, 95% air, and 100% relative humidity. For adherent cells, the assay is terminated by the addition of cold TCA. Cells are fixed in situ by the gentle addition of 50 μL of cold 50% (w/v) TCA (final concentration, 10% TCA) and incubated for 60 min at 4° C. The supernatant is discarded, and the plates are washed five times with tap water and air dried. Sulforhodamine B (SRB) solution (100 μL) at 0.4% (w/v) in 1% acetic acid is added to each well, and plates are incubated for 10 min at room temperature. After staining, unbound dye is removed by washing five times with 1% acetic acid and the plates are air dried. Bound stain is subsequently solubilized with 10 mM trizma base, and the absorbance is read on an automated plate reader at a wavelength of 515 nm. For suspension cells, the methodology is the same except that the assay is terminated by fixing settled cells at the bottom of the wells by gently adding 50 μL of 80% TCA (final concentration, 16% TCA). FIGS. 37-74 indicate the growth inhibition effects of selected Compounds against a variety of cell lines based on the above described testing configuration. FIGS. 37-74 present the Growth percent for a given compound against the cell lines and both values and a bar chart of the difference between the mean growth percent and the growth percent which is an indication of the selectivity of the compound for that particular cell line.

[7] = MCF-10A, MCF10A cells, Table II, non-linear regression, read-out: MCF10A (IC50)
[8] = MCF 10A non-tumorigenic cells, Table I, read-out: IC50 MCF 10A

Compound | IC50 [1] [µM] | antiproliferative activity against +SA mammary tumor cells (in words) [1] | IC50 [2] [µM] | IC50 [3] [µM] | inhibition at 5 µM [4] [%] | IC50 [5, 7] [µM] | IC50 [5, 8] [µM] | Selectivity index [5] | IC50 [4] [µM] | mean percent growth across all 60 cell lines (mean 60) [6]
CC(C)=CCC/C(C)=C/CC/C(C)=C/CC[C@]1(C)CCc2c3c(c(C)c(C)c2O1)OCN(Cc1ccccc1)C3 [Compound 6, (R)-2-benzyl-5,6,8-trimethyl-8-((3E,7E)-4,8,12-trimethyltrideca-3,7,11-trienyl)-1,2,3,8,9,10-hexahydrochromeno[5,6-e][1,3]oxazine] | 1.2 to 2.2 | inactive | > 20 | 27.3 | > 50 | – | – | – | – | –
CC(C)=CCC/C(C)=C/CC/C(C)=C/CC[C@]1(C)CCc2c3c(cc(C)c2O1)OCN(CCCO)C3 [Compound 13, 3-((R)-6,8-dimethyl-8-((3E,7E)-4,8,12-trimethyltrideca-3,7,11-trienyl)-9,10-dihydrochromeno[5,6-e][1,3]oxazin-2(1H,3H,8H)-yl)propan-1-ol] | – | – | > 20 | > 10 | > 50 | 6.5 | 6.5 | 3.61 | 6 | negative
CC(C)=CCC/C(C)=C/CC/C(C)=C/CC[C@]1(C)CCc2c3c(c(C)c(C)c2O1)OCN(CCc1ccc(O)cc1)C3 [Compound 26, 4-(2-((R)-5,6,8-trimethyl-8-((3E,7E)-4,8,12-trimethyltrideca-3,7,11-trienyl)-9,10-dihydrochromeno[5,6-e][1,3]oxazin-2(1H,3H,8H)-yl)ethyl)phenol] | – | very high activities | 10.6 | > 5 | > 50 | 8.5 | 8.5 | 5.67 | 4.5 | –
CC(C)=CCC/C(C)=C/CC/C(C)=C/CC[C@]1(C)CCc2c(CNCCc3ccc(O)cc3)c(O)c(C)c(C)c2O1 [Compound 31, (R)-5-((4-hydroxyphenethylamino)methyl)-2,7,8-trimethyl-2-((3E,7E)-4,8,12-trimethyltrideca-3,7,11-trienyl)chroman-6-ol] | 0.47 | – | – | – | – | – | – | – | – | comparable to the activity of Compound 1
CC(C)=CCC/C(C)=C/CC/C(C)=C/CC[C@]1(C)CCc2c3c(cc(C)c2O1)OCN(CCCCO)C3 [Compound 36, 4-((R)-6,8-dimethyl-8-((3E,7E)-4,8,12-trimethyltrideca-3,7,11-trienyl)-9,10-dihydrochromeno[5,6-e][1,3]oxazin-2(1H,3H,8H)-yl)butan-1-ol] | – | – | 16.3 | > 5 | – | 4.2 | 4.2 | 2.34 | 2.2 | negative
